Results taken from patent US20170008888A1 (KYORIN PHARMACEUTICAL CO., LTD., priority 2014, published 2017).
Marks after values point to notes of the source that are not given here.

Experiments:
MV-4-11 cells = experiment: MV-4-11 proliferation EC50 assay (CellTiter-Glo); format: cell-based; conditions: Homo sapiens, MV4-11, 48 h, read-out: MV-4-11 proliferation EC50, ave. ± S.D.
Description: Human biphenotypic B myelomonocytic leukemia MV-4-11 cells (ATCC, Manassas, Va.) were treated with test compounds at 2e5 cells/ml in IMDM medium containing 10% (v/v) FBS (Life Technologies, Grand Island, N.Y.) and 1×Pen/Strep Amphotericin B (Lonza, Allendale, N.J.). Compounds were tested at 25 μM down by ⅓ in a 9 point serial dilution series. Cells were incubated for 48 h at 37° C. in a humidified atmosphere at 5% CO2. MV-4-11 cell proliferation was then indirectly determined via cellular ATP content using the CellTiter-Glo® Luminescent Cell Viability Assay (Promega, Madison, Wis.) as per the manufacturer's instructions. Briefly, experimental plates were equilibrated at room temperature for 30 minutes. An equal volume of CellTiter-Glo® reagent was added to each well and incubated for 15 minutes at room temperature. Luminescent signal was read using the Wallac 1420 Victor^2 multilabel microplate reader (Perkin Elmer, Waltham, Mass.). EC50 values were determined using GraphPad Prism software v5.04.

[1] = test system: DNFB-induced ear inflammation mouse model; experiment: DNFB-induced ear inflammation (contact hypersensitivity) mouse model: ear weight; format: in vivo, mouse (Balb/c); conditions: 3 mg/kg PO, QD on Day 5 (elicitation)
Description: (§1) In vivo T-cell mediated immune response was examined in a mouse model of CHS using the hapten dinitrofluorobenzene (DNFB) as the induction agent. Method for sensitization and elicitation of DNFB-induced CHS was modified from Xu et al. J. Exp. Med. 1996. 183:1001-1012. On Days 0 and 1 (sensitization), 20 μL of 0.5% v/v DNFB in acetone:olive oil (4:1) was applied to each hindpaw of 8 week old male mice (Balb/c, Charles River Laboratories; 10 mice per group unless otherwise noted). On Day 5 (elicitation) 10 μL of 0.2% v/v DNFB in acetone: olive oil (4:1) was applied to the dorsal surface of the right ear of each animal; 10 μL of acetone: olive oil (4:1) was applied to the dorsal surface of the left ear as control. Treatments were administered by group as indicated in the table below; on days when DNFB was used, the QD and the morning dose of BID as appropriate were administered 30 minutes-1 hr. prior to DNFB application. […] Approximately 24 hours after elicitation (Day 6), a 7 mm tissue punch from the central portion of both ears was collected and wet weights measured. The primary functional assessment was the difference in wet weights of the right (DNFB) vs. left (vehicle) ears compared to the vehicle treatment (Vehicle1-S) as an indicator of inflammation (Table 17). Ear tissue punches were flash frozen, stored at −70° C. and analyzed for cytokines (see below). Body weights of the mice were measured at baseline and at end of study, and there were no significant changes in weight in any treatment group during the study (data not shown).

[2] = test system: DNFB-induced ear inflammation mouse model; experiment: DNFB-induced ear inflammation mouse model: cytokine concentrations in ear tissue; format: in vivo, mouse (Balb/c); conditions: Dex 3 mg/kg PO, regimen E
Description: as §1, with “Method for sensitization and elicitation of DNFB-induced CHS was modified from Xu et al. J. Exp. Med. 1996. 183:1001-1012.” left out, “below).” for “below). Body weights of the mice were measured at baseline and at end of study, and there were no significant changes in weight in any treatment group during the study (data not shown).”
Cytokine concentrations after DNFB induction and treatment were analyzed in the weighed and flash frozen tissues of the right (DNFB) and left (control) 7 mm ear punches. The ear tissues were stored at −70° C. until prepared for analysis as follows. Left or right ear tissues from the same treatment group were pooled and crushed with mortar and pestle under liquid nitrogen. Tissue representing 7-8 ear punches by weight was homogenized in Buffer A (50 mM HEPES pH 7.4, 100 mM NaCl) containing 1 tablet EDTA-free Protease Inhibitor (Thermo Fisher Scientific, Rockford, Ill.) per 10 mL, 1× Phosphatase Inhibitor Cocktail II (AG Scientific, San Diego, Calif.), and 1 mM PMSF (Sigma, St. Louis, Mo.). Homogenization was performed in Lysing Matrix D tubes (MP Biomedicals, Solon, Ohio), using the FastPrep-24 instrument (MP Biomedicals) at a speed setting of 6 for 4 cycles of 30 seconds, with cooling on ice in between cycles. The tubes were then centrifuged at 1,000×g for 10 min at 4° C. Supernatant was collected and briefly sonicated using the Microson probe sonicator at setting 3 (Misonix, Farmingdale, N.Y.) before centrifuging again at 10,000×g for 10 min at 4° C. The supernatant was ultracentrifuged at 100,000×g for 1 h at 4° C. in the Optima Max-E (Beckman Coulter, Indianapolis, Ind.) to separate soluble and membrane protein fractions. The soluble (supernatant) fraction was collected and protein concentrations determined using the Dc protein kit (Bio-Rad, Hercules, Calif.). Soluble ear proteins were analyzed in triplicate for cytokine response at a final protein concentration of 4 mg/ml using the Bio-Plex Pro Mouse Cytokine 23-Plex panel (Bio-Rad) as per manufacturer's protocols. Magnetic beads were read on the Bio-Plex MAGPIX multiplex reader instrument using the accompanying xPONENT 4.2 acquisition software (Bio-Rad Laboratories, Hercules, Calif.). Data were analyzed via the Bio-Plex Manager software v6.1 (Bio-Rad Laboratories). Response was calculated as a percentage of the cytokine concentrations measured in the right (DNFB) ears of vehicle 1 dosed (S regimen, i.e. dosed Day 0-5) mice (Table 18).

[3] = test system: Imiquimod-induced psoriasis mouse model; experiment: Imiquimod (IMQ)-induced acute model of psoriasis in mouse: skin thickness, erythema, scaling; format: in vivo, mouse (Balb/c)
Description: Material and methods for the IMQ study were adapted from van der Fits et al. J Immunol., 2009, 182: 5836-5845. Eight week old male Balb/c mice (Harlan) received a daily topical dose of 62.5 mg 5% IMQ cream (Aldara™, Medicis) equivalent to 3.125 mg IMQ, on the shaved back (approximately 2×3.5 cm patch) and dorsal surface of the right ear for 6 consecutive days. Sham control mice were treated similarly with control cream (Hydrous Emulsified Base, HEB, Cream, Fagron). Treatments were administered by group as indicated in Table 1 below prior to daily application of IMQ (QD and morning dose of BID regimens), n=10 for all groups. […] Body weights and scoring of induced clinical disease were performed after dosing (Days 1-7) but prior to IMQ application (Days 1-6) on Days 1 (baseline), 3, 4, 6, 8. Mice were sacrificed on Day 8 and treated back skin tissue collected and divided for fixation for histopathology (a 12 mm punch in mid-back) the remainder flash frozen; right (IMQ) and left (control) ears, spleen (after wet weight) and lung were also individually collected and flash frozen, and stored at −70° C. for subsequent biochemical analyses. Statistics were performed using one-way ANOVA with Dunnett's post-hoc test comparing treated groups to the vehicle group, using InStat software (GraphPad, La Jolla, Calif.).
The severity of clinical disease was assessed by
1) skin thickness dial gauge micrometer measurements (duplicate) of the ears and the dorsal skin at the midline of the back (equal to double true measure of dorsal skin thickness)
2) erythema and scaling, independently scored on a scale from 0-4: 0=none, 1=slight, 2=moderate, 3=marked, 4=very marked with intermediate increments of 0.5 allowed.
Clinical disease assessments included erythema, scaling, skin thickness and cumulative disease severity scores and the change in skin thickness of the ears and dorsal back skin over time compared to baseline measurements (Tables 19 and 20). Body weights of the mice were measured at baseline and at end of study, and there were no significant changes in weight in any treatment group during the study (data not shown).

[4] = Day 1 (baseline), Dexamethasone 3 mg/kg PO
[5] = Day 3, Dexamethasone 3 mg/kg PO
[6] = Day 4, Dexamethasone 3 mg/kg PO
[7] = Day 6, Dexamethasone 3 mg/kg PO
[8] = Day 8, Dexamethasone 3 mg/kg PO

## CN1C(=O)c2ccccc2N(C)c2nc(Nc3ccc(N4CCC(O)CC4)cn3)ncc21 [Compound IV-5 in WO 2010/080712]
MV-4-11 cells
  EC50: 1.12 µM

## C[C@@H]1C[C@H]2[C@@H]3CCC4=CC(=O)C=C[C@]4(C)[C@@]3(F)[C@@H](O)C[C@]2(C)[C@@]1(O)C(=O)CO [Dexamethasone, reference compound]
[1]
  % Reduction Weight Increase Vs. Vehicle 1 Weight Increase: −60.0%
[2]
  IFN-γ: Mean % Cytokine Concentration in DNFB Treated Right Ears versus Vehicle 1-Dosed (S) Mice: 74%
  IL-1α: Mean % Cytokine Concentration in DNFB Treated Right Ears versus Vehicle 1-Dosed (S) Mice: 189%
  IL-1β: Mean % Cytokine Concentration in DNFB Treated Right Ears versus Vehicle 1-Dosed (S) Mice: 53%
  IL-3: Mean % Cytokine Concentration in DNFB Treated Right Ears versus Vehicle 1-Dosed (S) Mice: 76%
  IL-5: Mean % Cytokine Concentration in DNFB Treated Right Ears versus Vehicle 1-Dosed (S) Mice: 58%
  IL-6: Mean % Cytokine Concentration in DNFB Treated Right Ears versus Vehicle 1-Dosed (S) Mice: 36%
  IL-12 (p40): Mean % Cytokine Concentration in DNFB Treated Right Ears versus Vehicle 1-Dosed (S) Mice: 59%
  IL-13: Mean % Cytokine Concentration in DNFB Treated Right Ears versus Vehicle 1-Dosed (S) Mice: 81%
  IL-17A: Mean % Cytokine Concentration in DNFB Treated Right Ears versus Vehicle 1-Dosed (S) Mice: 63%
  KC: Mean % Cytokine Concentration in DNFB Treated Right Ears versus Vehicle 1-Dosed (S) Mice: 29%
  MCP-1: Mean % Cytokine Concentration in DNFB Treated Right Ears versus Vehicle 1-Dosed (S) Mice: 41%
  MIP-1α: Mean % Cytokine Concentration in DNFB Treated Right Ears versus Vehicle 1-Dosed (S) Mice: 53%
  MIP-1β: Mean % Cytokine Concentration in DNFB Treated Right Ears versus Vehicle 1-Dosed (S) Mice: 39%
  RANTES: Mean % Cytokine Concentration in DNFB Treated Right Ears versus Vehicle 1-Dosed (S) Mice: 42%
  TNF-α: Mean % Cytokine Concentration in DNFB Treated Right Ears versus Vehicle 1-Dosed (S) Mice: 74%
[3]; [4]
  Clinical Score Erythema (0-4), AVG Score: 0
  Clinical Score Scaling (0-4), AVG Score: 0
[3]; [5]
  % Mean DORSAL BACK THICKNESS versus day 1, AVG: 3.08%
  % Mean LEFT EAR THICKNESS [Control] versus day 1, AVG: −9.64%
  % Mean RIGHT EAR THICKNESS [IMQ] versus day 1, AVG: −5.32%
  Clinical Score Erythema (0-4), AVG Score: 0.05
  Clinical Score Scaling (0-4), AVG Score: 0
[3]; [6]
  % Mean DORSAL BACK THICKNESS versus day 1, AVG: 13.71%
  % Mean LEFT EAR THICKNESS [Control] versus day 1, AVG: −10.38%
  % Mean RIGHT EAR THICKNESS [IMQ] versus day 1, AVG: −2.08%
  Clinical Score Erythema (0-4), AVG Score: 0.65
  Clinical Score Scaling (0-4), AVG Score: 0.2
[3]; [7]
  % Mean DORSAL BACK THICKNESS versus day 1, AVG: 13.04** %
  % Mean LEFT EAR THICKNESS [Control] versus day 1, AVG: −9.61%
  % Mean RIGHT EAR THICKNESS [IMQ] versus day 1, AVG: 10.54** %
  Clinical Score Erythema (0-4), AVG Score: 0.45
  Clinical Score Scaling (0-4), AVG Score: 0.5
[3]; [8]
  % Mean DORSAL BACK THICKNESS versus day 1, AVG: 14.32** %
  % Mean LEFT EAR THICKNESS [Control] versus day 1, AVG: −14.05%
  % Mean RIGHT EAR THICKNESS [IMQ] versus day 1, AVG: 10.40** %
  Clinical Score Erythema (0-4), AVG Score: 0.45
  Clinical Score Scaling (0-4), AVG Score: 0.35
